Here are results for five molecules from paper PMC10184313, “Inhibition of Thiamine Diphosphate-Dependent Enzymes by Triazole-Based Thiamine Analogues” (ACS Medicinal Chemistry Letters, 2023).

Like-named read-outs stand apart in the source and are kept apart here.

In one test the target is T1, S. cerevisiae PDC (Saccharomyces cerevisiae, UniProt P06169).
T1 construct: purchased Sigma
T1 sequence (P06169 2-563 limits assumed): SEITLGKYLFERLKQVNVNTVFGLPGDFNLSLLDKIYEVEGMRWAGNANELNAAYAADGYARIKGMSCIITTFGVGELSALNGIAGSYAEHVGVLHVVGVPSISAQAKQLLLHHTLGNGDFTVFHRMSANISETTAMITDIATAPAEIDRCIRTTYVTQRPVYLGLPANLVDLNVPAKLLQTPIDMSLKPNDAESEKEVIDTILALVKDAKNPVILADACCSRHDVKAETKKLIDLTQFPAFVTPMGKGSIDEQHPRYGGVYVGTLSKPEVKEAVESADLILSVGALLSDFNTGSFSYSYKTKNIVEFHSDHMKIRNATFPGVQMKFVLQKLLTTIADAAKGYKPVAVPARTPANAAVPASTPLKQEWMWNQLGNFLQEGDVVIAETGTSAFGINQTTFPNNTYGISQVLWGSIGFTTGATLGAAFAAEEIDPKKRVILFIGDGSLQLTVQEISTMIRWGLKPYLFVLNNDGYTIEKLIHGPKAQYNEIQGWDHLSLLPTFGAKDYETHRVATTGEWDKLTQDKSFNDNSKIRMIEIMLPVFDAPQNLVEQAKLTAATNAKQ
In words: S. cerevisiae PDC inhibitory activity assay (DCPIP reduction). Particulars: compounds insufficiently soluble were excluded, read-out: Inhibition (%) Yeast PDC. In kind it is biochemical. The method, then:
S. cerevisiae PDC inhibitory activity assay. S. cerevisiae PDC was purchased from Sigma. Its activity was determined by monitoring DCPIP reduction at 600 nm using a microplate reader (CLARIOstar) and conducted as described 1,2 with some modifications. The percentage inhibition of compounds was assayed at a final concentration of 1500 µM. The reaction buffer (50 mM KH 2PO4 and 1 mM MgCl 2, pH 7) contained 300 µM ThDP (or 750 µM in the competition assay), 0.27 mM DCPIP, and 0.15 mg/ml S. cerevisiae PDC. The reaction mixture was preincubated at 37 °C for 60 min, then reaction was initiated by adding pyruvate to a final concentration of 70 mM. Specific activity was calculated using the molar extinction coefficient of DCPIP, 21 mM -1 cm -1.3 […]

In the next test the target is T2, E. coli OGDHc E1 (Escherichia coli, UniProt P0AFG3).
T2 sequence (P0AFG3 1-933): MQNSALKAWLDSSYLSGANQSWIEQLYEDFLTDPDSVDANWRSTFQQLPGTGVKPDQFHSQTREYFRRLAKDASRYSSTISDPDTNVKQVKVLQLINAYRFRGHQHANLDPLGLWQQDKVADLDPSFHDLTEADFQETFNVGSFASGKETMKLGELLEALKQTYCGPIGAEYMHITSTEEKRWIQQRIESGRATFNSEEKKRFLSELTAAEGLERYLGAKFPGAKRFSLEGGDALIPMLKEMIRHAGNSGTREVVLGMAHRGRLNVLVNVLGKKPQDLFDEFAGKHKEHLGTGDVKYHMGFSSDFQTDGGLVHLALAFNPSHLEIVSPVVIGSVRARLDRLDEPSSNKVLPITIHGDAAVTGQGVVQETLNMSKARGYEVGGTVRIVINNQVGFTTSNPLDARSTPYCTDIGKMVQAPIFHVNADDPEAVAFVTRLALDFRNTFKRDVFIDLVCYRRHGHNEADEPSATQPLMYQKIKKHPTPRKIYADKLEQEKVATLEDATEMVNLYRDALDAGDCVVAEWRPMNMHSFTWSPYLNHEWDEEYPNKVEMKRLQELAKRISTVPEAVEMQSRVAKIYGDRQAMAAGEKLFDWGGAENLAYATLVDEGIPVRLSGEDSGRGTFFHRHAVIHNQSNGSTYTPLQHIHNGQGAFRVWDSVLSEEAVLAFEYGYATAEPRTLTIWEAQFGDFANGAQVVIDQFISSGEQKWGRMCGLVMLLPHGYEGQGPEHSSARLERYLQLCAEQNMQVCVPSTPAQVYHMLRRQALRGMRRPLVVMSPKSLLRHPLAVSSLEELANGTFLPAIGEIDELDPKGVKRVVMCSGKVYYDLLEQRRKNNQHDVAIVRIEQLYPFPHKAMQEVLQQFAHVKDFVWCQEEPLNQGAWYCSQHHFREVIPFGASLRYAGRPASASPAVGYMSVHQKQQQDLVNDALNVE
Briefly: E. coli OGDHc E1 inhibitory activity assay (DCPIP reduction). The format is biochemical. The method, then: E. coli OGDHc E1 inhibitory activity assay. E. coli OGDHc E1 was from our previous work 5 and had been donated by R. Frank. Its activity was determined by monitoring DCPIP reduction at 600 nm using a microplate reader (CLARIOstar) and conducted as described 1,2 with some modifications. The percentage inhibition of compounds against E. coli OGDHc E1 was assayed at a final concentration of 250 µM. The reaction buffer (50 mM KH 2PO4 and 2 mM MgCl 2, pH 7) contained 50 µM ThDP (or 125 µM in the competition assay), 0.5 mM DCPIP, and 6.7 mg/ml E. coli OGDHc E1. The reaction mixture was preincubated at 37 °C for 60 min, then reaction was initiated by adding α-ketoglutarate to a final concentration of 10 mM. To determine the IC 50, ThDP concentration was lowered to 30 µM, and inhibitor concentration was varied (2-1000 µM). Specific activity was calculated using the molar […]
for the PDHc E1 assay. […] 5 […]

Where [1] appears, read: [Compound] = 1.5 mM, [ThDP] = 0.3 mM.
Setting [2] is: increased ThDP: [Compound] = 1500 μM, [ThDP] = 750 μM.
Where [3] appears, read: [Compound] = 250 μM, [ThDP] = 50 μM.
Where [4] appears, read: increased ThDP: [Compound] = 250 μM, [ThDP] = 125 μM.

As a reminder, the inhibition is the change of the read-out against control, counted positive when it falls. By IC50 is commonly meant the midpoint of a concentration-inhibition curve. Read a high IC50 as lower potency. Broadly, the Ki is a measure of affinity in units of concentration, obtained from inhibition or displacement.

As to `Cc1ncc(Cn2cc(CCCCC(=O)NO)nn2)c(N)n1` [Compound 24c], the results for the inhibition at 1500 µM on S. cerevisiae PDC (setting [1]) and on S. cerevisiae PDC (setting [2]) were 63 ± 4% and 37 ± 4%, respectively. Further, the results for the inhibition at 250 µM at E. coli OGDHc E1 (setting [3]) and at E. coli OGDHc E1 (setting [4]) were more than 90% and 82 ± 2%, respectively. Further, the IC50 against E. coli OGDHc E1 ([ThDP] 30 μM) is 15 ± 3 µM. The Ki at E. coli OGDHc E1 (determined according to the KM for ThDP) worked out at 1.46 µM.
As for `Cc1ncc(Cn2cc(CCC(=O)Nc3ccccc3N)nn2)c(N)n1` [Compound 26a], the inhibition at 1500 µM at S. cerevisiae PDC (setting [1]) was less than 20%. The same molecule came in with an inhibition at 250 µM against E. coli OGDHc E1 (setting [3]) of 63 ± 2%.
On the same counts, the results for `Cc1ncc(Cn2cc(CCCC(=O)Nc3ccccc3N)nn2)c(N)n1` [Compound 26b] are 28 ± 3% and 52 ± 2%.
On the same counts, the results for `Cc1ncc(Cn2cc(CCCCC(=O)Nc3ccccc3N)nn2)c(N)n1` [Compound 26c] are less than 20% and 30 ± 2%.
Regarding `Cc1ncc(C[n+]2csc(CCO[P@@](=O)(O)OP(=O)(O)O)c2C)c(O)n1` [OxThDP 7b, oxythiamine diphosphate, reference compound], the inhibition at 1500 µM at S. cerevisiae PDC (setting [1]) amounted to 81 ± 3%; at S. cerevisiae PDC (setting [2]), 63 ± 3%. Moreover, the inhibition at 250 µM against E. coli OGDHc E1 (setting [3]) was found to be 62 ± 4%; against E. coli OGDHc E1 (setting [4]) it was 41 ± 4%.
